Results as given in patent US6620422B1, “Compositions containing a peptide and polylactic-glycolic acid suitable for preparing subcutaneous implants with an extended release period” (Mediolanum Farmaceutici S.p.A., priority 1998, dated 2003).

Experiment: physchem

- pKa (pKa): 9.7
- pKa (pKa (first value)): 6.15
- pKa (pKa (third printed value)): 12
SMILES: CCNC(=O)[C@@H]1CCCN1C(=O)[C@H](CCCNC(=N)N)NC(=O)[C@H](CC(C)C)NC(=O)[C@@H](Cc1c(C)[nH]c2ccccc12)NC(=O)[C@H](Cc1ccc(O)cc1)NC(=O)[C@H](CO)NC(=O)[C@H](Cc1c[nH]c2ccccc12)NC(=O)[C@H](Cc1c[nH]cn1)NC(=O)[C@@H]1CCC(=O)N1 [avoreline, 5-oxo-L-prolyl-L-histidil-L-tryptophil-L-seryl-L-tyrosil-2-methyl-D-tryptophil-L-leucyl-L-arginyl-N-ethyl-prolylamide]
